The conditions of the series: Crystal; DTA.

Numbers after ± are expanded uncertainties.

With `Nc1ccc2[nH]c3ccc(N)cc3c2c1` [3,6-diamino-9H-carbazole], the Normal melting temperature was found to be 241.00 ± 10 °C. Consider `O=[N+]([O-])c1ccc2[nH]c3ccc([N+](=O)[O-])cc3c2c1` [3,6-dinitro-9H-carbazole], for which the Normal melting temperature is 296.50 ± 10 °C.

Source of the values: the NIST ThermoML archive (doi:10.1016/j.tca.2005.05.013).
